Results on 15 compounds are retold here after US9573913B2, “Cathepsin cysteine protease inhibitors” (Merck Sharp & Dohme Corp., priority 2013, dated 2017).

Structures are written as SMILES. Where only a bound is given, the exact number is not on record here.

One test has as its target T1, human cathepsin F (Homo sapiens, UniProt Q9UBX1).
T1 sequence (Q9UBX1 271-484): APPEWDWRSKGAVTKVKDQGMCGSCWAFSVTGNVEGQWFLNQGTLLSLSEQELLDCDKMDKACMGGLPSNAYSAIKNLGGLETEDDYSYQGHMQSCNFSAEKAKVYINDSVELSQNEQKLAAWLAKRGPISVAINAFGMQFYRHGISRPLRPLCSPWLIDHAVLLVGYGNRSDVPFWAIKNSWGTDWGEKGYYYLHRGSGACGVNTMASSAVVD
As to the kind of experiment: Cathepsin F assay (hCat F). Type of test: biochemical. As to conditions: Z-Phe-Arg-AMC substrate, pH 5.5, 15 min preincubation; read-out: hCat F (IP (nM)). The protocol:
Cathepsin F assay (hCat F)
(§1) Serial dilutions (1/3) from 500 μM down to 0.025 μM of test compounds were prepared in dimethyl sulfoxide (DMSO). Then 0.5 μL of DMSO from each dilution were added to 18.75 μL of assay buffer (MES, 50 mM (pH 5.5); EDTA, 2.5 mM; DTT, 2.5 mM and 10% DMSO) containing human cathepsin F (10 nM) in assay buffer solution. The assay solutions were mixed for 5-10 seconds on a shaker plate and incubated for 15 minutes at room temperature. Z-Phe-Arg-AMC (8 μM) in 6.25 μL of assay buffer was added to the assay solutions. Hydrolysis of the coumarin leaving group (AMC) was followed by spectrofluorometry (Exλ=360 nm; Emλ=460 nm) for 20 minutes. Percent of inhibition were calculated by fitting experimental values to standard mathematical model for dose response curve.

Another test concerns the target human cathepsin K (UniProt P43236). As to the kind of experiment: Cathepsin K Assay (hrbCat K). The format is biochemical. Conditions: Z-Leu-Arg-AMC substrate, pH 5.5, 15 min preincubation; read-out: hrbCat K (IP (nM)). The protocol: Cathepsin K Assay (hrbCat K)
as §1, with “Then” for “Serial dilutions (1/3) from 500 μM down to 0.025 μM of test compounds were prepared in dimethyl sulfoxide (DMSO). Then”, “K (0.4” for “F (10”, “Z-Leu-Arg-AMC” for “Z-Phe-Arg-AMC”, “30” for “20”

On to `CCC(C#N)NC(=O)[C@@H]1CCCC[C@H]1c1nc(-c2ccc(F)cn2)sc1-c1ccc(N2CCS(=O)(=O)CC2)cc1` (single isomer, unassigned) [Example 188, (1R,2R)-N-((S or R)-1-cyanopropyl)-2-(5-(4-(1,1-dioxidothiomorpho-lino)phenyl)-2-(5-fluoropyridin-2-yl)thiazol-4-yl)cyclohexane-carboxamide], for which the IC50 amounted to 6710 nM at human cathepsin F and 15.3 nM at human cathepsin K.
On to `CC(C)C(C#N)NC(=O)[C@@H]1CCCC[C@H]1c1nc(-c2ccc(F)cn2)sc1-c1ccc(N2CCS(=O)(=O)CC2)cc1` (single isomer, unassigned) [Example 191, (1R,2R)-N-((R or S)-1-cyano-2-methylpropyl)-2-(5-(4-(1,1-dioxidothiomorpho-lino)phenyl)-2-(5-fluoropyridin-2-yl)thiazol-4-yl)cyclohexane-carboxamide], for which the results for the IC50 on human cathepsin F and on human cathepsin K were 691 nM and 1.5 nM, respectively.
The matching figures for `CCC(C#N)NC(=O)[C@@H]1CCCC[C@H]1c1nc(-c2ccc(F)cn2)sc1-c1ccc(N2CCS(=O)(=O)CC2)cc1` (single isomer, unassigned) [Example 192, (1R,2R)-N-((R or S)-1-cyanopropyl)-2-(5-(4-(1,1-dioxidothiomorpho-lino)phenyl)-2-(5-fluoropyridin-2-yl)thiazol-4-yl)cyclohexane-carboxamide]: 103 nM and 0.4 nM.
Take `N#CC(CC(F)(F)F)NC(=O)[C@@H]1CCCC[C@H]1c1nc(-c2ccc(F)cn2)sc1-c1ccc(N2CCS(=O)(=O)CC2)cc1` (single isomer, unassigned) [Example 193, (1R,2R)-N-((R or S)-1-cyano-3,3,3-trifluoropropyl)-2-(5-(4-(1,1-dioxidothiomorpho-lino)phenyl)-2-(5-fluoropyridin-2-yl)thiazol-4-yl)cyclohexane-carboxamide]: the IC50 at human cathepsin F is 21 nM; at human cathepsin K it was 0.6 nM.
Take `N#CC(CC(F)(F)F)NC(=O)[C@@H]1CCCC[C@H]1c1nc(-c2ccc(F)cn2)sc1-c1ccc(N2CCS(=O)(=O)CC2)cc1` (single isomer, unassigned) [Example 194, (1R,2R)-N-((S or R)-1-cyano-3,3,3-trifluoropropyl)-2-(5-(4-(1,1-dioxidothiomorpho-lino)phenyl)-2-(5-fluoropyridin-2-yl)thiazol-4-yl)cyclohexane-carboxamide]: the IC50 turned out to be 1920 nM on human cathepsin F and 3.1 nM on human cathepsin K.
For the compound `CC1CC1(C#N)NC(=O)[C@@H]1CCCC[C@H]1c1nc(-c2ccc(F)cn2)sc1-c1ccc(N2CCS(=O)(=O)CC2)cc1` (single isomer, unassigned) [Example 202, (1R,2R)-N-((1S,2S or 1S,2R or 1R,2S or 1R,2R)-1-cyano-2-methylcyclopropyl)-2-(5-(4-(1,1-dioxidothiomorpho-lino)phenyl)-2-(5-fluoropyridin-2-yl)thiazol-4-yl)cyclohexane-carboxamide], the IC50 is at least 10000 nM on human cathepsin F and 6.6 nM at human cathepsin K.
The corresponding values for `N#CC1(NC(=O)[C@@H]2C[C@@H](F)CC[C@H]2c2nc(C3CC(F)C3)sc2-c2ccc(N3CCS(=O)(=O)CC3)cc2)CC1` (single isomer, unassigned) [Example 233, (1R,2R,5S)-N-(1-cyanocyclopropyl)-2-(5-(4-(1,1-dioxidothiomorpho-lino)phenyl)-2-((1S,3S or 1R,3R)-3-fluorocyclobutyl)thiazol-4-yl)-5-fluorocyclohexane-carboxamide] are at least 10000 nM and 6 nM.
Regarding `C[C@@H](C#N)NC(=O)[C@@H]1C[C@@H](F)CC[C@H]1c1nc(C2CC(F)C2)sc1-c1ccc(N2CCS(=O)(=O)CC2)cc1` (single isomer, unassigned) [Example 234, (1R,2R,5S)-N-((S)-1-cyanoethyl)-2-(5-(4-(1,1-dioxidothiomorpho-lino)phenyl)-2-((1S,3S or 1R,3R)-(3-fluorocyclobutyl)thiazol-4-yl)-5-fluorocyclohexane-carboxamide], the values for the IC50 on human cathepsin F and at human cathepsin K were 6100 nM and 4 nM, respectively.
Regarding `C[C@@H](C#N)NC(=O)[C@@H]1C[C@@H](F)CC[C@H]1c1nc(C2CC(F)C2)sc1-c1ccc(N2CCS(=O)(=O)CC2)cc1` (single isomer, unassigned) [Example 236, (1R,2R,5S)-N-((S)-1-cyanoethyl)-2-(5-(4-(1,1-dioxidothiomorpho-lino)phenyl)-2-((1R,3R or 1S,3S)-(3-fluorocyclobutyl)thiazol-4-yl)-5-fluorocyclohexane-carboxamide], the IC50 was determined as 4500 nM at human cathepsin F and 3.7 nM at human cathepsin K.
On to `N#CC1(NC(=O)[C@@H]2CCCC[C@H]2c2nc(C3CC(F)(F)C3)sc2-c2ccc(N3CCS(=O)(=O)CC3)cc2)CC1` [Compound 1, (1R,2R)-N-(1-cyanocyclopropyl)-2-(2-(3,3-difluorocyclobutyl)-5-(4-(1,1-dioxidothiomorpholino)phenyl)thiazol-4-yl)cyclohexanecarboxamide], for which the IC50 on human cathepsin F worked out at 1000 nM; on human cathepsin K it was 5.8 nM.
Take `N#CC1(NC(=O)[C@@H]2CCCC[C@H]2c2nc(-c3ccc(F)cc3)sc2-c2ccc(N3CCS(=N)(=O)CC3)cc2)CC1` [Compound 5, (1R,2R)-N-(1-Cyanocyclopropyl)-2-(2-(4-fluorophenyl)-5-(4-(1-imino-1-oxidothiomorpholino)phenyl)thiazol-4-yl)cyclohexanecarboxamide]: the values for the IC50 on human cathepsin F and on human cathepsin K were 3330 nM and 1.9 nM, respectively.
The corresponding values for `N#CC1(NC(=O)[C@@H]2CCCC[C@H]2c2nc(N3CCC(F)(F)CC3)sc2-c2ccc(N3CCS(=O)(=O)CC3)cc2)CC1` [Compound 6, (1R,2R)-N-(1-cyanocyclopropyl)-2-(2-(4,4-difluoropiperidin-1-yl)-5-(4-(1,1-dioxidothiomorpholino)phenyl)thiazol-4-yl)cyclohexanecarboxamide] are 1000 nM and 3.6 nM.
As for `N#CC1(NC(=O)[C@@H]2C[C@@H](F)CC[C@H]2c2nc(-c3cncc(F)c3)sc2-c2ccc(N3CCS(=O)(=O)CC3)cc2)CC1` [Compound 7, (1R,2R,5S)-N-(1-cyanocyclopropyl)-2-(5-(4-(1,1-dioxidothiomorpholino)phenyl)-2-(5-fluoropyridin-3-yl)thiazol-4-yl)-5-fluorocyclohexanecarboxamide], the IC50 at human cathepsin F was 1920 nM; at human cathepsin K, 0.9 nM.
As for `C[C@@H](C#N)NC(=O)[C@@H]1C[C@@H](F)CC[C@H]1c1nc(-c2ccc(F)cn2)sc1-c1ccc(N2CCS(=O)(=O)CC2)cc1` [Compound 8, (1R,2R,5S)-N—((S)-1-Cyanoethyl)-2-(5-(4-(1,1-dioxidothiomorpholino)phenyl)-2-(5-fluoropyridin-2-yl)thiazol-4-yl)-5-fluorocyclohexanecarboxamide], the IC50 at human cathepsin F was found to be 1100 nM; at human cathepsin K, 1.3 nM.
In the case of `Cc1nc([C@@H]2CC[C@H](F)C[C@H]2C(=O)NC2(C#N)CC2)c(-c2ccc(N3CCOCC3)cc2)s1` [Compound 9, (1R,2R,5S)-N-(1-cyanocyclopropyl)-5-fluoro-2-(2-methyl-5-(4-morpholinophenyl)thiazol-4-yl)cyclohexanecarboxamide], the IC50 at human cathepsin F is at least 10000 nM; at human cathepsin K it was 44.1 nM.
